Test results from patent US20140335019A1, “COMPOSITIONS AND METHODS FOR THE TREATMENT AND ANALYSIS OF NEUROLOGICAL DISORDERS” (THE REGENTS OF THE UNIVERSITY OF MICHIGAN, priority 2011, published 2014).
Entries after “also recorded” stand apart in the source; their conditions may differ. Each block holds one molecule with its values, some of them ahead of it.

How the values were obtained:
Aβ species = conditions: cited from earlier work
[1] = in vivo biodistribution of radiolabeled compound; parameters: species or system C57B1/6 mice
Description: Healthy female C57B1/6 mice (n=18) were administered by bolus intravenous injection with [^3H]-3b (2.5 μCi) each. The mice were divided into 3 groups of 6. Each group was sacrificed at 10 min, 60 min and 120 min post injection. Biodistribution was carried out by harvesting blood from cardiac puncture and tissue (liver, heart, kidneys, lungs, small intestine, muscle, spleen, feces, bladder, bone and brain). The brain was divided into four different sections (cerebellum, frontal cortex, parietal cortex and striatum). The tissue was digested and counted for accumulated activity.

[2] = biological target: Aβ monomer pretreated with ZnCl2 (Homo sapiens, UniProt P05067); test: NMR studies of compound with Aβ monomer pretreated with ZnCl2; assay type: binding
Excerpt: (§1) While an understanding of the mechanism is not necessary to practice the invention and the invention is not limited to any particular mechanism of action, these observations imply that the compounds may target metal ions associated with Aβ species.

[3] = system: Tg2576 hAPP-transgenic mice; test: in vivo activity in Tg2576 hAPP-transgenic mice (4G8 and Congo red staining of brain slices); conditions: 1 mg/kg oral gavage every two days for two months; relative to control vehicle; p<0.01
Description: During the development of embodiments of the technology provided herein, experiments were conducted to verify the efficacy of pharmaceutical compositions according to the technology by testing in a murine model. Pharmaceutical compositions comprising compounds described herein were administered every two days at 1 mg/kg (0.1 ml/10 g body weight) to four female Tg2576 hAPP-transgenic mice (18 months old) for two months (total 30 times in 60 days) by oral gavage.
Efficacy was evaluated after drug administration. Tissue slices […] long were prepared from cerebrums of Tg2576 mice by a procedure comprising rapid freezing and cutting using a cryostat. To verify the degree of amyloid beta accumulation, the brain tissue slices were stained by APP/Aβ17-24-immunospecific antibody 4G8. In addition, to identify the amount of mature amyloid plaques that were generated in the presence of Apolipoprotein E (ApoE), sample were stained with Congo red.

[4] = solution speciation by UV-vis variable-pH titrations; assay type: physicochemical; conditions: physiological pH (ca. 7.4)
[5] = system: Aβ species in human AD brain tissue homogenates; test: treatment of human AD brain tissue homogenates, Western blotting with 6E10; assay type: biochemical; conditions: 24 h treatment, frontal cortex homogenates
Excerpt: The frontal cortex section of the human AD brain was selected because it generally contains high amounts of Aβ aggregates. […] Also, using these compounds, similar to in vitro disaggregation studies with synthetic Aβ peptide above, perturbing metal-Aβ interaction is contemplated to find use for disassembling Aβ aggregates in brain tissue.

[6] = system: human SK-N-BE(2)-M17 (M17) neuroblastoma cells; conditions: for concentration with no toxicity: human, 24 h
Description: (§2) Preliminary cytotoxicity studies of the compounds in human SK-N-BE(2)-M17 (M17) neuroblastoma cells were carried out using a standard colorimetric assay for measuring cell growth (i.e., MTT assay; MTT=3-(4,5-dimethylthiazol-2-yl)-2,5-diphenyltetrazolium bromide).

M17 cells = test: cytotoxicity of metal (CuII or ZnII)-associated Aβ species with compounds, MTT assay; assay type: cell-based, human; conditions: Aβ 20 μM, metal ions 20 μM, compound 40 μM, 24 h
Description: Then, the cells were incubated for 24 h.
as §2

Aβ aggregates = Aβ aggregates (Homo sapiens, UniProt P05067); test: ELISA of interaction with Aβ aggregates; assay type: binding; conditions: similar to ThT
Excerpt: as §1

Chain of Aβ monomer pretreated with ZnCl2 (P05067 672-711 limits assumed): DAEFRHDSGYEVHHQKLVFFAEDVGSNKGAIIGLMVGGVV
Chain of Aβ aggregates (P05067 672-711 limits assumed): as above

SMILES: CN(C)c1ccc(/C=C/c2ccc(I)cc2)cc1 [p-1-stilbene, (E)-4-(4-iodostyryl)-N,N-dimethylaniline]
- binding affinity to Aβ species (Aβ species): strong binding affinity

- BBB crossing ([1]; bolus intravenous injection, 2.5 μCi, 10, 60 and 120 min post injection): can cross the BBB
SMILES: CN(C)c1ccc(NCc2ccccn2)cc1 [[^3H]-3b]
- brain uptake ([1]; cerebellum, frontal cortex, parietal cortex, striatum, 10, 60, 120 min): relatively consistent within the time points chosen

SMILES: CN(C)c1ccc(-c2cn3cc(I)ccc3n2)cc1 [IMPY, 4-(6-iodoimidazo[1,2-α]pyridin-2-yl)-N,N-dimethylaniline]
- binding affinity to Aβ species (Aβ species): strong binding affinity

- main species in solution [4]: neutral form
- interaction with Aβ aggregates (ELISA) (Aβ aggregates): interacted with Aβ aggregates
SMILES: CN(C)c1ccc(NCc2ccccn2)cc1 [3b, N^1,N^1-Dimethyl-N^4-(pyridin-2-ylmethyl)benzene-1,4-diamine]
- complex formation with ZnII-pretreated Aβ monomer [2]: a ternary complex containing Aβ, ZnII, and the molecule may be generated
- Aβ immunoreactivity (4G8 staining) [3]: reduced
- congophilicity (Congo red staining) [3]: reduced
- Aβ species visualized by Western blotting with 6E10 [5]: more gel-permeable and lower MW Aβ species
- concentration with no toxicity [6]: up to 40 μM
- toxicity induced by metal-Aβ (M17 cells): capable of reducing metal-Aβ neurotoxicity; also recorded: noticeably diminished toxicity

SMILES: CN(C)c1ccc(N=Cc2ccccn2)cc1 [2b, N^1,N^1-dimethyl-N^4-(pyridin-2-ylmethylene)benzene-1,4-diamine]
- cytotoxicity compared with CQ [6]: less cytotoxic than CQ
- concentration with no toxicity [6]: up to 100 μM
